According to PubChem BioAssay (NCI):
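Test compounds were applied to cells in 96-well plates for 48 hours at 5 doses. TGI: total growth inhibition.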

Legend:
Assay in all cases: NCI anticancer screen, dose series, 48 h
[1] = tested on: HL-60(TB) leukemia
[2] = tested on: DLD-1 colon
[3] = tested on: SR leukemia
[4] = tested on: A549 NSCLC
[5] = tested on: NCI-H460 lung
[6] = tested on: SNB-19 CNS
[7] = tested on: M19-MEL melanoma
[8] = tested on: SK-MEL-5 melanoma
[9] = tested on: SK-MEL-28 melanoma
[10] = tested on: ACHN renal
[11] = tested on: NCI-H23 lung
[12] = tested on: UACC-257 melanoma
[13] = tested on: KM20L2 colon
[14] = tested on: 786-0 renal
[15] = tested on: HOP-18 NSCLC
[16] = tested on: CCRF-CEM leukemia
[17] = tested on: HOP-62 NSCLC
[18] = tested on: HCT-15 colon
[19] = tested on: IGROV1 ovarian
[20] = tested on: HCT-116 colon
[21] = tested on: UO-31 renal
[22] = tested on: M14 melanoma
[23] = tested on: SK-OV-3 ovarian
[24] = tested on: SNB-75 CNS
[25] = tested on: RPMI-8226 leukemia
[26] = tested on: OVCAR-5 ovarian
[27] = tested on: DMS 114 small cell lung
[28] = tested on: MALME-3M melanoma
[29] = tested on: OVCAR-8 ovarian
[30] = tested on: HCC-2998 colon
[31] = tested on: CAKI-1 renal
[32] = tested on: SF-539 CNS
[33] = tested on: HOP-92 NSCLC
[34] = tested on: NCI-H226 lung
[35] = tested on: SK-MEL-2 melanoma
[36] = tested on: DMS 273 small cell lung
[37] = tested on: OVCAR-4 ovarian
[38] = tested on: SF-268 CNS
[39] = tested on: LXFL 529 NSCLC
[40] = tested on: SW-620 colon
[41] = tested on: LOX IMVI melanoma
[42] = tested on: A498 renal
[43] = tested on: K-562 leukemia
[44] = tested on: SF-295 CNS
[45] = tested on: EKVX NSCLC
[46] = tested on: COLO 205 colon
[47] = tested on: HT29 colon
[48] = tested on: SN12C renal
[49] = tested on: U251 CNS
[50] = tested on: TK-10 renal
[51] = tested on: KM12 colon
[52] = tested on: OVCAR-3 ovarian
[53] = tested on: UACC-62 melanoma
[54] = tested on: NCI-H522 lung
[55] = tested on: MOLT-4 leukemia
[56] = tested on: SNB-78 CNS
[57] = tested on: RXF 393 renal

O=C1[C@H]2ON(c3ccccc3)C(c3ccc(Cl)cc3Cl)[C@H]2C(=O)N1c1ccc(Cc2ccc(N3C(=O)[C@@H]4ON(c5ccccc5)C(c5ccc(Cl)cc5Cl)[C@@H]4C3=O)cc2)cc1 (some centres not stated)
TGI [1]: > 100 µM
TGI [2]: > 100 µM
TGI [3]: > 100 µM
TGI [4]: > 100 µM
TGI [5]: > 100 µM
TGI [6]: > 100 µM
TGI [7]: > 100 µM
TGI [8]: > 100 µM
TGI [9]: > 100 µM
TGI [10]: > 100 µM
TGI [11]: > 100 µM
TGI [12]: > 100 µM
TGI [13]: > 100 µM
TGI [14]: > 100 µM
TGI [15]: > 100 µM
TGI [16]: > 100 µM
TGI [17]: > 100 µM
TGI [18]: > 100 µM
TGI [19]: > 100 µM
TGI [20]: > 100 µM
TGI [21]: > 100 µM
TGI [22]: 69 µM
TGI [23]: > 100 µM
TGI [24]: > 100 µM
TGI [25]: > 100 µM
TGI [26]: > 100 µM
TGI [27]: > 100 µM
TGI [28]: > 100 µM
TGI [29]: > 100 µM
TGI [30]: > 100 µM
TGI [31]: > 100 µM
TGI [32]: > 100 µM
TGI [33]: > 100 µM
TGI [34]: > 100 µM
TGI [35]: > 100 µM
TGI [36]: > 100 µM
TGI [37]: > 100 µM
TGI [38]: > 100 µM
TGI [39]: > 100 µM
TGI [40]: > 100 µM
TGI [41]: > 100 µM
TGI [42]: > 100 µM
TGI [43]: > 100 µM
TGI [44]: > 100 µM
TGI [45]: > 100 µM
TGI [46]: > 100 µM
TGI [47]: > 100 µM
TGI [48]: > 100 µM
TGI [49]: > 100 µM
TGI [50]: > 100 µM
TGI [51]: > 100 µM
TGI [52]: > 100 µM
TGI [53]: > 100 µM
TGI [54]: > 100 µM
TGI [55]: > 100 µM
TGI [56]: > 100 µM

CCCC(=O)c1ccc2c(ccc(=O)n2C)c1
TGI [1]: > 100 µM
TGI [2]: > 100 µM
TGI [4]: > 100 µM
TGI [5]: > 100 µM
TGI [6]: > 100 µM
TGI [7]: > 100 µM
TGI [8]: > 100 µM
TGI [9]: > 100 µM
TGI [11]: > 100 µM
TGI [13]: > 100 µM
TGI [14]: > 100 µM
TGI [15]: > 100 µM
TGI [16]: > 100 µM
TGI [17]: > 100 µM
TGI [18]: > 100 µM
TGI [19]: > 100 µM
TGI [20]: > 100 µM
TGI [22]: > 100 µM
TGI [23]: > 100 µM
TGI [24]: 92.3 µM
TGI [25]: > 100 µM
TGI [26]: > 100 µM
TGI [27]: > 100 µM
TGI [28]: > 100 µM
TGI [29]: > 100 µM
TGI [30]: > 100 µM
TGI [31]: > 100 µM
TGI [32]: > 100 µM
TGI [33]: > 100 µM
TGI [34]: > 100 µM
TGI [35]: > 100 µM
TGI [36]: > 100 µM
TGI [37]: > 100 µM
TGI [38]: > 100 µM
TGI [39]: > 100 µM
TGI [40]: > 100 µM
TGI [41]: > 100 µM
TGI [42]: > 100 µM
TGI [43]: > 100 µM
TGI [44]: > 100 µM
TGI [45]: > 100 µM
TGI [46]: > 100 µM
TGI [47]: > 100 µM
TGI [48]: > 100 µM
TGI [49]: > 100 µM
TGI [50]: > 100 µM
TGI [51]: > 100 µM
TGI [52]: > 100 µM
TGI [53]: > 100 µM
TGI [54]: > 100 µM
TGI [55]: > 100 µM

CCOC(=O)C1(c2ccccc2)CCCNCC1 (configuration not stated)
TGI [1]: > 100 µM
TGI [2]: > 100 µM
TGI [3]: 88.8 µM
TGI [4]: > 100 µM
TGI [5]: > 100 µM
TGI [6]: > 100 µM
TGI [7]: > 100 µM
TGI [8]: > 100 µM
TGI [9]: > 100 µM
TGI [10]: > 100 µM
TGI [11]: > 100 µM
TGI [12]: > 100 µM
TGI [13]: > 100 µM
TGI [14]: > 100 µM
TGI [15]: > 100 µM
TGI [16]: > 100 µM
TGI [17]: > 100 µM
TGI [18]: > 100 µM
TGI [19]: > 100 µM
TGI [20]: > 100 µM
TGI [21]: > 100 µM
TGI [22]: > 100 µM
TGI [23]: > 100 µM
TGI [24]: > 100 µM
TGI [25]: > 100 µM
TGI [26]: > 100 µM
TGI [28]: > 100 µM
TGI [29]: > 100 µM
TGI [57]: > 100 µM
TGI [30]: > 100 µM
TGI [31]: > 100 µM
TGI [33]: > 100 µM
TGI [34]: > 100 µM
TGI [35]: > 100 µM
TGI [36]: > 100 µM
TGI [37]: > 100 µM
TGI [38]: > 100 µM
TGI [39]: > 100 µM
TGI [40]: > 100 µM
TGI [41]: > 100 µM
TGI [42]: > 100 µM
TGI [43]: > 100 µM
TGI [44]: > 100 µM
TGI [45]: > 100 µM
TGI [46]: > 100 µM
TGI [47]: > 100 µM
TGI [48]: > 100 µM
TGI [49]: > 100 µM
TGI [50]: > 100 µM
TGI [51]: > 100 µM
TGI [52]: > 100 µM
TGI [53]: > 100 µM
TGI [54]: > 100 µM
TGI [55]: > 100 µM
TGI [56]: > 100 µM
